Experimental data as given in patent US20040162339A1, “Heterocyclic biaryl compounds, pharmaceutical and cosmetic compositions containing them and uses thereof” (priority 1996, published 2004).

Row | melting point [°C] | Compound
1 | 137 | CCCCCCC1(c2ccc3c(c2)C(C)(C)CCC3(C)C)COc2cc(C(=O)O)ccc21 (centres unmarked)
2 | 268 | CC1(C)CCC(C)(C)c2cc(C3(CC(=O)O)COc4cc(C(=O)O)ccc43)ccc21 (centres unmarked)
